Target: T1, DDX3 (Homo sapiens, UniProt O00571)
T1 construct: gene DDX3X; full length, His-tagged DDX3
Assay: SPR (Biacore T200) with immobilized purified His-DDX3; also malachite green ATPase inhibition at […]
Format: binding

T1 sequence (O00571 whole entry): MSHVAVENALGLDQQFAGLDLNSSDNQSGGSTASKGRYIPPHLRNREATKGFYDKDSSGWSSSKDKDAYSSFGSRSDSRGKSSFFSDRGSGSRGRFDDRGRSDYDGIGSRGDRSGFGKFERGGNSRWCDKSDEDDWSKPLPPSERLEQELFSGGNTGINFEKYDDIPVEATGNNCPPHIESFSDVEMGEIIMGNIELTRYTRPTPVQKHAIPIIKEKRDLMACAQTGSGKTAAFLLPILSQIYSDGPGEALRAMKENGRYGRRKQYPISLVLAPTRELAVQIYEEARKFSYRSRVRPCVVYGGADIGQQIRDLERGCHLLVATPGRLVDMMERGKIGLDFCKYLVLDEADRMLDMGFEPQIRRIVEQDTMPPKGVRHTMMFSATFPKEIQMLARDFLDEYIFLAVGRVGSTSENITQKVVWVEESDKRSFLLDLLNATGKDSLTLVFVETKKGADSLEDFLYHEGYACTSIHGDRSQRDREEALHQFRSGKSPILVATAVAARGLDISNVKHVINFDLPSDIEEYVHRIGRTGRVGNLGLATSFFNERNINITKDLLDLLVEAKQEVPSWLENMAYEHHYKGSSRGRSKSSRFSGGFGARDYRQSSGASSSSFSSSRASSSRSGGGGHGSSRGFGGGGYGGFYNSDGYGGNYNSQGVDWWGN

Kd: 8.8 µM
Structure (SMILES): O=C(/C=C/c1ccc(O)cc1)Nc1ccc(O)cc1C(=O)O [AVN A, Avenanthramide A]
